Data on two compounds can be found in article PMC8642396, “Crystal structure of human METTL6, the m^3C methyltransferase” (Communications Biology, 2021).

What all share (assay type): binding
Experiment [1] concerns the target T1, hMETTL6 (Homo sapiens, UniProt Q8TCB7, F111L).
T1 construct: gene METTL6
T1 sequence (Q8TCB7 1-284 F111L): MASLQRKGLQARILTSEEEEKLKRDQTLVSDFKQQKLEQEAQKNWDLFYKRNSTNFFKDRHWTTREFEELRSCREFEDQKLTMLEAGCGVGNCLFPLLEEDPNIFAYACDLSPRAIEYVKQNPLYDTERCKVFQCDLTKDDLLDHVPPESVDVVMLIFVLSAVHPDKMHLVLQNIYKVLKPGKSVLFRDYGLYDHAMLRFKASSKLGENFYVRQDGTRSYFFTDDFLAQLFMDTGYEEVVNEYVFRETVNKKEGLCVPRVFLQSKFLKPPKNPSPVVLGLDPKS
Kind of experiment: isothermal titration calorimetry. (Isothermal titration calorimetry measures the heat released or taken up as one component is titrated into another.)

For experiment [2], the target named is T2, hMETTL6 (Homo sapiens, UniProt Q8TCB7).
T2 construct: gene METTL6
T2 sequence (Q8TCB7 1-284): T1 sequence (Q8TCB7 1-284 F111L) with L111F
Kind of experiment: isothermal titration calorimetry.

In experiment [3] the target is T3, hMETTL6 (Homo sapiens, UniProt Q8TCB7, D110A).
T3 construct: gene METTL6
T3 sequence (Q8TCB7 1-284 D110A): T1 sequence (Q8TCB7 1-284 F111L) with D110A, L111F
Description: isothermal titration calorimetry. As to conditions: pH 8.0, 150 mM NaCl, 1 mM DTT, 25 °C; mutant partly aggregated, structural integrity disrupted.

In experiment [4] the target is T4, hMETTL6 (Homo sapiens, UniProt Q8TCB7, H61N).
T4 construct: gene METTL6
T4 sequence (Q8TCB7 1-284 H61N): T1 sequence (Q8TCB7 1-284 F111L) with H61N, L111F
Description: isothermal titration calorimetry.

In experiment [5] the target is T5, hMETTL6 (Homo sapiens, UniProt Q8TCB7, Y49F).
T5 construct: gene METTL6
T5 sequence (Q8TCB7 1-284 Y49F): T1 sequence (Q8TCB7 1-284 F111L) with Y49F, L111F
Kind of experiment: isothermal titration calorimetry.

For experiment [6], the target named is T6, hMETTL6 (Homo sapiens, UniProt Q8TCB7, E85Q).
T6 construct: gene METTL6
T6 sequence (Q8TCB7 1-284 E85Q): T1 sequence (Q8TCB7 1-284 F111L) with E85Q, L111F
Kind of experiment: isothermal titration calorimetry.

The target in experiment [7] is T7, hMETTL6 (Homo sapiens, UniProt Q8TCB7, C93S).
T7 construct: gene METTL6
T7 sequence (Q8TCB7 1-284 C93S): T1 sequence (Q8TCB7 1-284 F111L) with C93S, L111F
Description: isothermal titration calorimetry.

For experiment [8], the target named is T2, hMETTL6. Description: X-ray crystal structure, […] Å. As to conditions: protein mixed with 2 mM SAH; active site; ammonium sulfate, pH 5.6.

Positions count from the first letter of the chain named.

In general, Kd refers to the constant that tells how readily two partners part at equilibrium. For the compound `C[S+](CC[C@H](N)C(=O)O)C[C@H]1O[C@@H](n2cnc3c(N)ncnc32)[C@H](O)[C@@H]1O` (some centres unmarked) [SAM], the Kd in experiment [1] was 8.05 µM; in experiment [2] it was roughly 2.7 µM; in experiment [4], 3.11 µM; in experiment [5], 9.5 µM; in experiment [6], 87.5 µM; in experiment [7], 2.25 µM. Also, the KD result in experiment [3] is “the D110A mutation almost eliminated the association capacity of the enzyme”.

`Nc1ncnc2c1ncn2[C@@H]1O[C@H](CSCC[C@H](N)C(=O)O)[C@@H](O)[C@H]1O` [SAH]: the “X-ray crystal structure, 1.9 Å” value in experiment [8] was “we solved the structure of hMETTL6 in complex with SAH at a high resolution”.
